Article PMC8307317, “Point-Substitution of Phenylalanine Residues of 26RFa Neuropeptide: A Structure-Activity Relationship Study” (Molecules, 2021)
Read-outs that look alike come from different tables or passages of the source. Starred links: 1 amine or outer side, 2 acyl side, 3 side chain; linkers in the order of their positions; H or OH if unused. Positions of bridges follow the written chain, without caps; N, C: chain ends. Non-standard residues stand in square brackets, D forms with d. Residues, ends and D or L forms follow the SMILES beside them. No end group written: not given here. ξ: configuration not given here. *: point of attachment. Ahppa(3S,4S) = O=C(C[C@H](O)[C@H](Cc1ccccc1)N[*:1])[*:2]; Phe(4-NO2) = N[C@@H](Cc1ccc([N+](=O)[O-])cc1)C(=O)O; Oic = O=C(O)[C@@H]1C[C@@H]2CCCC[C@@H]2N1; Phe(4-Cl) = N[C@@H](Cc1ccc(Cl)cc1)C(=O)O; X9 = NC(=O)C[C@H](O)[C@H](Cc1ccccc1)N*; 2Nal = N[C@@H](Cc1ccc2ccccc2c1)C(=O)O; X4 = COc1ccc(C(C(=O)*)N2CCNCC2)cc1OC; NMeF = CN[C@@H](Cc1ccccc1)C(=O)O; Tic = O=C(O)[C@@H]1Cc2ccccc2CN1; dTic = O=C(O)[C@H]1Cc2ccccc2CN1; 2Thi = N[C@@H](Cc1cccs1)C(=O)O; X1 = O=C(C(c1cccnc1)N1CCNCC1)*; X2 = O=C(C(c1ccccc1)N1CCNCC1)*; ξPhg = NC(C(=O)O)c1ccccc1; Nphe = O=C(O)CNCc1ccccc1

Target: T1, human QRFPR (hQRFPR) (Homo sapiens, UniProt Q96P65)
T1 construct: expressed in transfected cells; host or cells: CHO cells, stably transfected with hQRFPR (G418 selection) and Gα16 (hygromycin B selection)
T1 sequence (Q96P65 1-431): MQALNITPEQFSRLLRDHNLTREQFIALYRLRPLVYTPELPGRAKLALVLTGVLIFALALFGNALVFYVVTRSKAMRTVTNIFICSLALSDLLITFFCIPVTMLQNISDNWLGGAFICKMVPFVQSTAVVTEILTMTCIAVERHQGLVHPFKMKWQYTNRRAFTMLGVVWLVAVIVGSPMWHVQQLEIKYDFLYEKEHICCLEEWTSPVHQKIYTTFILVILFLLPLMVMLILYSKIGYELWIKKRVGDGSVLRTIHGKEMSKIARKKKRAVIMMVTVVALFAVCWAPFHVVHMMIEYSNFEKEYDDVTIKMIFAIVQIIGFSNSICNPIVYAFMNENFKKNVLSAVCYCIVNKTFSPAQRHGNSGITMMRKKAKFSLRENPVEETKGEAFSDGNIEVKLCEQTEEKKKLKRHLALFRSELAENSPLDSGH
Assay: Calcium mobilization assay, agonist mode ([Ca2+]i in Gα16-hQRFPR-transfected CHO cells)
Format: cell-based
Protocol: Stably transfected hQRFPR CHO cells were obtained as previously described. The cells were maintained in F-12 nutrient mixture (Ham-F12) medium supplemented with 10% fetal bovine serum, 2 mM glutamine, and penicillin-streptomycin. Expression of Gα16 cells was maintained using selection antibiotic hygromycin B (200 µg/mL) and that of hQRFPR using geneticin G418 (500 µg/mL) (Life Technologies, Villebon-Sur-Yvette, France) in a humidified 5% CO2 atmosphere at 37 °C.
Changes in intracellular Ca^2+ concentrations induced by 26RFa(20–26) analogs in CHO-Gα16-hQRFPR-transfected cells were measured on a benchtop scanning fluorometer Flexstation III (Molecular Devices, Sunnyvale, CA, USA) as previously described. Briefly, 96-well assay black plates with clear bottoms (Corning international, Avon, France) were seeded at a density of 40,000 cells/well 24 h prior to assay. For profiling agonistic experiments, cells were loaded with 2 µM Fluo-4 acetoxymethyl ester (AM) (Invitrogen) for 1 h in the presence of 0.01% pluronic acid, washed thrice, and incubated for 30 min with standard HBSS containing 2.5 mM probenecid and 5 mM HEPES. Compounds to be tested were added at final concentrations ranging from 10^−11 to 10^−5 M in HBSS, and the fluorescence intensity was measured during 3 min. To evaluate the antagonistic potency of the test compounds, cells were incubated with each compound over 15 min after Fluo-4 AM loading. Then, during fluorescence recording, a pulse of 26RFa was administered at a final concentration of 10^−7 M. After subtraction of the mean fluorescence background, the baseline was normalized to 100%. Fluorescence peak values were determined for each concentration of compound.
Calcium experiments were performed in triplicate, and data, expressed as mean ± SEM of at least three distinct experiments, were analyzed with the Prism 8.0 software (Graphpad Software, San Diego, CA, USA). EC50 and the IC50 values were determined from concentration–response curves using a sigmoidal dose–response fit with variable slope from at least three independent determinations. Differences between 26RFa(20–26) and analog activities were analyzed by the Mann–Whitney test. p values < 0.05 were considered significant.

[1] = [Ca2+]i mobilization in Gα16-hQRFPR-transfected CHO cells, mean of at least three independent experiments performed in triplicate, read-out: EC50
[2] = single prototype curve, triplicate, basal [Ca2+]i mobilization, read-out: EC50 calculated from representative dose–response curves (Figure 3)

Compound	EC50 [1] [µM]	EC50 [2] [µM]
N=C(N)NCCC[C@H](NC(=O)[C@H](Cc1ccccc1)NC(=O)[C@H](CO)NC(=O)[C@H](Cc1ccccc1)NC(=O)CNC(=O)CN)C(=O)N1[C@H](C(N)=O)C[C@@H]2CCCC[C@@H]21 [Compound 45, [Oic^26]26RFa(20–26)] (H-GGFSFR[Oic]-NH2)	> 10	–
GGFSFRW-NH2 [Compound 10, [Trp^26]26RFa(20–26)]	5.06	–
N=C(N)NCCC[C@H](NC(=O)[C@H](Cc1ccccc1)NC(=O)[C@H](CO)NC(=O)C(c1ccccc1)N1CCNCC1)C(=O)N[C@@H](Cc1ccccc1)C(N)=O (stereo partly shown) [Compound 50, [Cmpi(Phg)^22]26RFa(22–26)] (X2-SFRF-NH2)	> 10	–
N=C(N)NCCC[C@H](NC(=O)[C@H](Cc1ccccc1)NC(=O)[C@H](CO)NC(=O)[C@H]1Cc2ccccc2CN1C(=O)CNC(=O)CN)C(=O)N[C@@H](Cc1ccccc1)C(N)=O [Compound 40, [DTic^22]26RFa(20–26)] (H-GG[dTic]SFRF-NH2)	4.99	–
N=C(N)NCCC[C@H](NC(=O)C[C@H](O)[C@H](Cc1ccccc1)NC(=O)[C@H](CO)NC(=O)[C@H](Cc1ccccc1)NC(=O)CNC(=O)CN)C(=O)N[C@@H](Cc1ccccc1)C(N)=O [Compound 35, [AHPPA^24]26RFa(20–26)] (H-GGFS[Ahppa(3S,4S)]RF-NH2)	> 10	–
COc1ccc(C(C(=O)N[C@@H](CO)C(=O)N[C@@H](Cc2ccccc2)C(=O)N[C@@H](CCCNC(=N)N)C(=O)N[C@@H](Cc2ccccc2)C(N)=O)N2CCNCC2)cc1OC (stereo partly shown) [Compound 62, [Cmpi(3,4-diMeOPhg)^22]26RFa(22–26)] (X4-SFRF-NH2)	> 10	–
CN(C(=O)[C@H](CCCNC(=N)N)NC(=O)[C@H](Cc1ccccc1)NC(=O)[C@H](CO)NC(=O)[C@H](Cc1ccccc1)NC(=O)CNC(=O)CN)[C@@H](Cc1ccccc1)C(N)=O [Compound 27, [NMePhe^26]26RFa(20–26)] (H-GGFSFR[NMeF]-NH2)	> 10	–
N=C(N)NCCC[C@H](NC(=O)[C@H](Cc1ccccc1)NC(=O)[C@H](CO)NC(=O)[C@H](Cc1ccc2ccccc2c1)NC(=O)CNC(=O)CN)C(=O)N[C@@H](Cc1ccccc1)C(N)=O [Compound 5, [2Nal^22]26RFa(20–26)] (H-GG[2Nal]SFRF-NH2)	1.15	–
N=C(N)NCCC[C@H](NC(=O)CN(Cc1ccccc1)C(=O)[C@H](CO)NC(=O)[C@H](Cc1ccccc1)NC(=O)CNC(=O)CN)C(=O)N[C@@H](Cc1ccccc1)C(N)=O [Compound 32, [NPhe^24]26RFa(20–26)] (H-GGFS[Nphe]RF-NH2)	> 10	–
GGFSWRF-NH2 [Compound 9, [Trp^24]26RFa(20–26)]	2.04	–
N=C(N)NCCC[C@H](NC(=O)[C@H](Cc1ccccc1)NC(=O)[C@H](CO)NC(=O)[C@H](Cc1ccccc1)NC(=O)CNC(=O)CN)C(=O)N[C@@H](Cc1ccc([N+](=O)[O-])cc1)C(N)=O [Compound 19, [pNO2Phe^26]26RFa(20–26)] (H-GGFSFR[Phe(4-NO2)]-NH2)	0.491	0.489
N=C(N)NCCC[C@H](NC(=O)[C@H](Cc1ccccc1)NC(=O)[C@H](CO)NC(=O)C(c1cccnc1)N1CCNCC1)C(=O)N[C@@H](Cc1ccccc1)C(N)=O (stereo partly shown) [Compound 63, [Cmpi(3-Pyg)^22]26RFa(22–26)] (X1-SFRF-NH2)	4.99	–
N=C(N)NCCC[C@H](NC(=O)C(NC(=O)[C@H](CO)NC(=O)[C@H](Cc1ccccc1)NC(=O)CNC(=O)CN)c1ccccc1)C(=O)N[C@@H](Cc1ccccc1)C(N)=O (stereo partly shown) [Compound 21, [Phg^24]26RFa(20–26)] (H-GGFS[ξPhg]RF-NH2)	> 10	–
N=C(N)NCCC[C@H](NC(=O)[C@H](Cc1ccccc1)NC(=O)[C@H](CO)NC(=O)[C@@H]1Cc2ccccc2CN1C(=O)CNC(=O)CN)C(=O)N[C@@H](Cc1ccccc1)C(N)=O [Compound 28, [Tic^22]26RFa(20–26)] (H-GG[Tic]SFRF-NH2)	0.327	0.305

Other lines, results leading:

EC50 [1] [µM]	EC50 [2] [µM]	Compound
> 10	–	N=C(N)NCCC[C@H](NC(=O)[C@H](Cc1ccccc1)NC(=O)[C@H](CO)NC(=O)[C@H](Cc1ccccc1)NC(=O)CNC(=O)CN)C(=O)NC(C(N)=O)c1ccccc1 (stereo partly shown) [Compound 24, [Phg^26]26RFa(20–26)] (H-GGFSFR[ξPhg]-NH2)
5	–	N=C(N)NCCC[C@H](NC(=O)[C@H](Cc1ccccc1)NC(=O)[C@H](CO)NC(=O)[C@H](Cc1ccc(Cl)cc1)NC(=O)CNC(=O)CN)C(=O)N[C@@H](Cc1ccccc1)C(N)=O [Compound 14, [Pcp^22]26RFa(20–26)] (H-GG[Phe(4-Cl)]SFRF-NH2)
> 10	–	N=C(N)NCCC[C@H](NC(=O)[C@H](Cc1ccccc1)NC(=O)[C@H](CO)NC(=O)[C@H](Cc1ccccc1)NC(=O)CNC(=O)CN)C(=O)N[C@@H](Cc1ccccc1)[C@@H](O)CC(N)=O [Compound 36, [AHPPA^26]26RFa(20–26)] (H-GGFSFR-X9)
6.2	–	N=C(N)NCCC[C@H](NC(=O)[C@H]1Cc2ccccc2CN1C(=O)[C@H](CO)NC(=O)[C@H](Cc1ccccc1)NC(=O)CNC(=O)CN)C(=O)N[C@@H](Cc1ccccc1)C(N)=O [Compound 41, [DTic^24]26RFa(20–26)] (H-GGFS[dTic]RF-NH2)
0.578	0.149	N=C(N)NCCC[C@H](NC(=O)[C@H](Cc1ccccc1)NC(=O)[C@H](CO)NC(=O)CN(Cc1ccccc1)C(=O)CNC(=O)CN)C(=O)N[C@@H](Cc1ccccc1)C(N)=O [Compound 31, [NPhe^22]26RFa(20–26)] (H-GG[Nphe]SFRF-NH2)
> 10	–	COc1ccc(C(C(=O)N[C@@H](CO)C(=O)N[C@@H](Cc2ccccc2)C(=O)N[C@@H](CCCNC(=N)N)C(=O)N[C@@H](Cc2ccccc2)C(N)=O)N2CCNCC2)cc1OC (stereo partly shown) [Compound 61, [Cmpi(3,4-diMeOPhg)^22]26RFa(22–26)] (X4-SFRF-NH2)
> 10	–	N=C(N)NCCC[C@@H]1NC(=O)[C@H](Cc2ccccc2)NC(=O)[C@H](CO)NC(=O)[C@@H](NC(=O)CNC(=O)CN)CSSC[C@@H](C(N)=O)NC1=O [Compound 47, [Cys^22,26]26RFa(20–26)] (H-GGCSFRC-NH2; disulfide 3-7)
> 10	–	N=C(N)NCCC[C@H](NC(=O)[C@@H](Cc1c[nH]c2ccccc12)NC(=O)[C@H](CO)NC(=O)[C@H](Cc1ccccc1)NC(=O)CNC(=O)CN)C(=O)N[C@@H](Cc1ccccc1)C(N)=O [Compound 38, [DTrp^24]26RFa(20–26)] (H-GGFS[dW]RF-NH2)
> 10	–	N=C(N)NCCC[C@H](NC(=O)[C@H](Cc1ccccc1)NC(=O)[C@H](CO)NC(=O)C(c1ccccc1)N1CCNCC1)C(=O)N[C@@H](Cc1ccccc1)C(N)=O (stereo partly shown) [Compound 49, [Cmpi(Phg)^22]26RFa(22–26)] (X2-SFRF-NH2)
2.53	–	N=C(N)NCCC[C@H](NC(=O)[C@H](Cc1cccs1)NC(=O)[C@H](CO)NC(=O)[C@H](Cc1ccccc1)NC(=O)CNC(=O)CN)C(=O)N[C@@H](Cc1ccccc1)C(N)=O [Compound 3, [Thi^24]26RFa(20–26)] (H-GGFS[2Thi]RF-NH2)
7.23	–	N=C(N)NCCC[C@H](NC(=O)[C@H](Cc1ccccc1)NC(=O)[C@H](CO)NC(=O)[C@H](Cc1ccccc1)NC(=O)CNC(=O)CN)C(=O)N[C@@H](Cc1cccs1)C(N)=O [Compound 4, [Thi^26]26RFa(20–26)] (H-GGFSFR[2Thi]-NH2)
2.13	–	N=C(N)NCCC[C@H](NC(=O)[C@H](Cc1ccccc1)NC(=O)[C@H](CO)NC(=O)[C@H](Cc1ccc([N+](=O)[O-])cc1)NC(=O)CNC(=O)CN)C(=O)N[C@@H](Cc1ccccc1)C(N)=O [Compound 17, [pNO2Phe^22]26RFa(20–26)] (H-GG[Phe(4-NO2)]SFRF-NH2)
> 10	–	N=C(N)NCCC[C@H](NC(=O)[C@H](Cc1ccccc1)NC(=O)[C@H](CO)NC(=O)[C@H](Cc1ccccc1)NC(=O)CNC(=O)CN)C(=O)N(CC(N)=O)Cc1ccccc1 [Compound 33, [NPhe^26]26RFa(20–26)] (H-GGFSFR[Nphe]-NH2)
1.36	–	CN(C(=O)[C@H](CO)NC(=O)[C@H](Cc1ccccc1)NC(=O)CNC(=O)CN)[C@@H](Cc1ccccc1)C(=O)N[C@@H](CCCNC(=N)N)C(=O)N[C@@H](Cc1ccccc1)C(N)=O [Compound 26, [NMePhe^24]26RFa(20–26)] (H-GGFS[NMeF]RF-NH2)
